Data as given in patent US6737383B1, “Herbicidal oxadiazolidines” (priority 1999, dated 2004).

Columns and labels:
[1] = tested on: bamyardgrass; assay: Test B flood test barnyardgrass; format: in vivo, Echinochloa crus-galli
How it was run: (§1)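 Flood test on plants grown to the 2-leaf stage; treated plants kept in greenhouse twelve to sixteen days, then visually rated against controls on a 0 (no effect) to 10 (complete control) scale.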

[2] = tested on: cocklebur; assay: Test B pre/postemergence cocklebur; format: in vivo, Xanthium strumarium
How it was run: (§2)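 Herbicidal effect was estimated by eye on a ten-point control scale after plants spent twelve to sixteen days in a greenhouse following soil or foliar treatment. Foliar sprays targeted plants at one to four leaves; all doses were formulated in a non-phytotoxic solvent with surfactant.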

[3] = tested on: sugar beet; assay: Test B pre/postemergence sugar beet; format: in vivo, Beta vulgaris
How it was run: as §2

[4] = tested on: smallflower flatsedge; assay: Test B flood test smallflower flatsedge; format: in vivo, Cyperus difformis
How it was run: as §1

[5] = Postemergence, Rate 62 g/ha, scale 0 to 10, 0 is no effect, 10 is complete control
[6] = Rate 125 g/ha, Postemergence section (flood test species), scale 0 to 10, 0 no effect, 10 complete control
[7] = flood test, listed under Postemergence, Rate 250 g/ha, scale 0 to 10, 0 no effect, 10 complete control
[8] = Postemergence, Rate 250 g/ha, scale 0 to 10, 0 no effect, 10 complete control
[9] = Preemergence, Rate 31 g/ha, visual rating, scale 0 to 10 (0 no effect, 10 complete control)
[10] = Preemergence, Rate 62 g/ha, scale 0 to 10, 0 is no effect, 10 is complete control
[11] = Preemergence, Rate 125 g/ha, scale 0 to 10 (0 no effect, 10 complete control)
[12] = Preemergence, Rate 250 g/ha, scale of 0 to 10 where 0 is no effect and 10 is complete control
[13] = Rate 125 g/ha, Postemergence, scale 0 to 10, 0 no effect, 10 complete control
[14] = Rate 62 g/ha, headed Pre-emergence (flood test species), scale 0 to 10 (0 no effect, 10 complete control)
[15] = Rate 125 g/ha, Pre-emergence, flood test species, scale 0 to 10 where 0 is no effect and 10 is complete control
[16] = Rate 250 g/ha, Pre-emergence, flood-test species, scale 0 to 10, 0 is no effect, 10 is complete control
[17] = Rate 500 g/ha, Pre-emergence, flood test species, scale 0 to 10 (0 no effect, 10 complete control)
[18] = Preemergence, Rate 62 g/ha, scale of 0 to 10 where 0 is no effect and 10 is complete control
[19] = Preemergence, Rate 500 g/ha, scale of 0 to 10 where 0 is no effect and 10 is complete control
[20] = Rate 62 g/ha, Postemergence, scale of 0 to 10 where 0 is no effect and 10 is complete control
[21] = Rate 125 g/ha, Postemergence, scale 0 to 10
[22] = Rate 125 g/ha, Preemergence, scale of 0 to 10 where 0 is no effect and 10 is complete control
[23] = Rate 500 g/ha, Postemergence, scale 0 to 10
[24] = Postemergence (flood test), Rate 125 g/ha, scale 0 to 10, 0 is no effect, 10 is complete control
[25] = Rate 62 g/ha, Postemergence (flood test species), scale of 0 to 10 where 0 is no effect and 10 is complete control
[26] = Postemergence, Rate 125 g/ha, scale 0 to 10, 0 is no effect, 10 is complete control
[27] = Preemergence, Rate 62 g/ha, scale 0 to 10 (0 no effect, 10 complete control)
[28] = Rate 500 g/ha, Postemergence, scale 0 to 10, 0 no effect, 10 complete control
[29] = Preemergence, Rate 250 g/ha, scale 0 to 10, 0 is no effect, 10 is complete control
[30] = Rate 62 g/ha, flood test species, Pre-emergence, visual evaluation after twelve to sixteen days
[31] = Rate 125 g/ha, under heading Pre-emergence, flood test species, visual evaluation after twelve to sixteen days
[32] = Rate 250 g/ha, Pre-emergence (flood test species), scale 0 to 10, 0 is no effect, 10 is complete control
[33] = Postemergence, Rate 250 g/ha, scale 0 to 10
[34] = Postemergence, Rate 500 g/ha, scale of 0 to 10 where 0 is no effect and 10 is complete control
[35] = Preemergence, Rate 125 g/ha, scale of 0 to 10 where 0 is no effect and 10 is complete control
[36] = Preemergence, Rate 500 g/ha, scale 0 to 10, 0 is no effect, 10 is complete control
[37] = Rate 62 g/ha, Postemergence, scale 0 to 10 (0 no effect, 10 complete control)
[38] = Rate 125 g/ha, Postemergence, scale 0 to 10, 0 is no effect, 10 is complete control

Structure (SMILES): COc1ccc(-n2c(=O)on(C(=O)N(c3ccc(F)cc3F)C(C)C)c2=O)c(OC)c1 [Compound 32]
- Barnyardgrass plant response rating [1, 5]: 0
- Barnyardgrass plant response rating [1, 6]: 0
- Barnyardgrass plant response rating ([1]; Rate 500 g/ha, Postemergence section of Table B, 0 to 10 scale (0 no effect, 10 complete control)): 9
- Barnyardgrass plant response rating [1, 7]: 8
- Cocklebur plant response rating [2, 5]: 0
- Cocklebur plant response rating [2, 8]: 0
- Cocklebur plant response rating [2, 9]: 0
- Plant response rating, Cocklebur [2, 10]: 0
- Plant response rating, Cocklebur [2, 11]: 0
- Plant response rating, Cocklebur [2, 12]: 0
- Cocklebur plant response rating ([2]; Rate 31 g/ha, Postemergence, scale 0 to 10): 0
- Cocklebur plant response rating [2, 13]: 0
- Sugarbeets plant response rating [3, 5]: 0
- Sugarbeets plant response rating [3, 8]: 0
- Sugarbeets plant response rating [3, 9]: 0
- Plant response rating, Sugarbeets [3, 10]: 0
- Plant response rating, Sugarbeets [3, 11]: 0
- Plant response rating, Sugarbeets [3, 12]: 0
- Sugarbeets plant response rating [3, 13]: 0
- S. Flatsedge plant response rating [4, 5]: 0
- S. Flatsedge plant response rating [4, 6]: 0
- S. Flatsedge plant response rating [4, 7]: 2

Structure (SMILES): CCOC(=O)C=CCn1c(=O)on(C(=O)N(c2ccc(F)cc2)C(C)C)c1=O [Compound 214]
- Barnyardgrass plant response rating [1, 14]: 0
- Barnyardgrass plant response rating [1, 15]: 0
- Barnyardgrass plant response rating [1, 16]: 0
- Barnyardgrass plant response rating [1, 17]: 0
- Cocklebur plant response rating [2, 18]: 0
- Cocklebur plant response rating [2, 12]: 0
- Plant response rating, Cocklebur [2, 19]: 0
- Cocklebur plant response rating [2, 20]: 0
- Cocklebur plant response rating [2, 21]: 0
- Cocklebur plant response rating [2, 22]: 0
- Plant response rating (0 to 10; 0 is no effect, 10 is complete control), Cocklebur ([2]; Rate 250 g/ha, Postemergence): 0
- Cocklebur plant response rating [2, 23]: 0
- Sugarbeets plant response rating [3, 18]: 0
- Sugarbeets plant response rating [3, 12]: 0
- Plant response rating, Sugarbeets [3, 19]: 0
- Sugarbeets plant response rating [3, 20]: 0
- Sugarbeets plant response rating [3, 21]: 0
- Sugarbeets plant response rating [3, 22]: 0
- Plant response rating (0 to 10; 0 is no effect, 10 is complete control), Sugarbeets ([3]; Rate 250 g/ha, Postemergence): 0
- Sugarbeets plant response rating [3, 23]: 0
- S. Flatsedge plant response rating [4, 14]: 0
- S. Flatsedge plant response rating [4, 15]: 0
- S. Flatsedge plant response rating [4, 16]: 0
- S. Flatsedge plant response rating [4, 17]: 0

Structure (SMILES): CC(C)N(C(=O)n1oc(=O)n(C2CCCCCC2)c1=O)c1ccc(F)cc1F [Compound 342]
- Plant response rating, Barnyardgrass [1, 24]: 2
- Barnyardgrass plant response rating [1, 25]: 0
- Plant response rating, Barnyardgrass ([1]; Rate 250 g/ha, Postemergence (flood test species), scale of 0 to 10 where 0 is no effect and 10 is complete control): 9
- Plant response rating, Barnyardgrass ([1]; Rate 500 g/ha, listed under Postemergence (flood test species), scale 0 to 10, 0 no effect, 10 complete control): 9
- Plant response rating, Cocklebur [2, 26]: 0
- Plant response rating, Cocklebur [2, 27]: 0
- Cocklebur plant response rating (0 to 10 scale) ([2]; Preemergence, Rate 125 g/ha): 0
- Cocklebur plant response rating [2, 19]: 0
- Cocklebur plant response rating [2, 20]: 0
- Plant response rating, Cocklebur [2, 28]: 0
- Plant response rating, Sugarbeets [3, 26]: 0
- Plant response rating, Sugarbeets [3, 27]: 0
- Sugarbeets plant response rating (0 to 10 scale) ([3]; Preemergence, Rate 125 g/ha): 0
- Sugarbeets plant response rating [3, 12]: 0
- Sugarbeets plant response rating [3, 19]: 0
- Sugarbeets plant response rating [3, 20]: 0
- Plant response rating, Sugarbeets [3, 28]: 0
- Plant response rating, S. Flatsedge [4, 24]: 4
- S. Flatsedge plant response rating [4, 25]: 0

Structure (SMILES): CC(C)N(C(=O)n1oc(=O)n(CC=Cc2ccccc2)c1=O)c1ccc(F)cc1 [Compound 210]
- Barnyardgrass plant response rating [1, 14]: 0
- Barnyardgrass plant response rating [1, 15]: 0
- Barnyardgrass plant response rating [1, 16]: 0
- Barnyardgrass plant response rating [1, 17]: 0
- Cocklebur plant response rating [2, 18]: 0
- Cocklebur plant response rating [2, 29]: 0
- Plant response rating, Cocklebur [2, 19]: 0
- Cocklebur plant response rating [2, 20]: 0
- Cocklebur plant response rating [2, 21]: 0
- Cocklebur plant response rating [2, 22]: 0
- Plant response rating (0 to 10; 0 is no effect, 10 is complete control), Cocklebur ([2]; Rate 250 g/ha, Postemergence): 0
- Cocklebur plant response rating [2, 23]: 2
- Sugarbeets plant response rating [3, 18]: 0
- Sugarbeets plant response rating [3, 29]: 0
- Plant response rating, Sugarbeets [3, 19]: 3
- Sugarbeets plant response rating [3, 20]: 0
- Sugarbeets plant response rating [3, 21]: 0
- Sugarbeets plant response rating [3, 22]: 0
- Plant response rating (0 to 10; 0 is no effect, 10 is complete control), Sugarbeets ([3]; Rate 250 g/ha, Postemergence): 0
- Sugarbeets plant response rating [3, 23]: 4
- S. Flatsedge plant response rating [4, 14]: 0
- S. Flatsedge plant response rating [4, 15]: 0
- S. Flatsedge plant response rating [4, 16]: 0
- S. Flatsedge plant response rating [4, 17]: 0

Structure (SMILES): COC(C)n1c(=O)on(C(=O)N(c2ccccc2)C(C)C)c1=O (centres unmarked) [Compound 441]
- Plant response rating, Barnyardgrass (0 to 10 scale, 0 is no effect, 10 is complete control) [1, 30]: 0
- Barnyardgrass plant response rating (0 to 10 scale, 0 is no effect, 10 is complete control) [1, 31]: 0
- Barnyardgrass plant response rating [1, 32]: 0
- Barnyardgrass plant response rating [1, 17]: 0
- Cocklebur plant response rating [2, 33]: 0
- Cocklebur plant response rating [2, 34]: 0
- Plant response rating, Cocklebur [2, 18]: 0
- Plant response rating, Cocklebur [2, 35]: 0
- Cocklebur plant response rating [2, 29]: 0
- Cocklebur plant response rating [2, 36]: 0
- Cocklebur plant response rating [2, 37]: 0
- Cocklebur plant response rating [2, 38]: 0
- Sugarbeets plant response rating [3, 33]: 0
- Sugarbeets plant response rating [3, 34]: 0
- Plant response rating, Sugarbeets [3, 18]: 0
- Plant response rating, Sugarbeets [3, 35]: 0
- Sugarbeets plant response rating [3, 29]: 0
- Sugarbeets plant response rating [3, 36]: 0
- Sugarbeets plant response rating [3, 37]: 0
- Sugarbeets plant response rating [3, 38]: 0
- Plant response rating, S. Flatsedge (0 to 10 scale, 0 is no effect, 10 is complete control) [4, 30]: 0
- S. Flatsedge plant response rating (0 to 10 scale, 0 is no effect, 10 is complete control) [4, 31]: 0
- S. Flatsedge plant response rating [4, 32]: 0
- S. Flatsedge plant response rating [4, 17]: 0

Structure (SMILES): CON=C(Cn1c(=O)on(C(=O)N(c2ccc(F)cc2)C(C)C)c1=O)C(F)(F)F [Compound 227]
- Barnyardgrass plant response rating [1, 14]: 0
- Barnyardgrass plant response rating [1, 15]: 0
- Barnyardgrass plant response rating [1, 16]: 0
- Barnyardgrass plant response rating [1, 17]: 0
- Cocklebur plant response rating [2, 18]: 0
- Cocklebur plant response rating [2, 12]: 0
- Plant response rating, Cocklebur [2, 19]: 0
- Cocklebur plant response rating [2, 20]: 0
- Cocklebur plant response rating [2, 21]: 0
- Cocklebur plant response rating [2, 22]: 0
- Plant response rating (0 to 10; 0 is no effect, 10 is complete control), Cocklebur ([2]; Rate 250 g/ha, Postemergence): 2
- Cocklebur plant response rating [2, 28]: 3
- Sugarbeets plant response rating [3, 18]: 2
- Sugarbeets plant response rating [3, 12]: 6
- Plant response rating, Sugarbeets [3, 19]: 8
- Sugarbeets plant response rating [3, 20]: 0
- Sugarbeets plant response rating [3, 21]: 0
- Sugarbeets plant response rating [3, 22]: 3
- Plant response rating (0 to 10; 0 is no effect, 10 is complete control), Sugarbeets ([3]; Rate 250 g/ha, Postemergence): 3
- Sugarbeets plant response rating [3, 28]: 5
- S. Flatsedge plant response rating [4, 14]: 0
- S. Flatsedge plant response rating [4, 15]: 0
- S. Flatsedge plant response rating [4, 16]: 0
- S. Flatsedge plant response rating [4, 17]: 0
